Reference: patent publication US12630498B2 (Genzyme Corporation, priority 2019, dated 2026)
pEC50: −log10 of the molar value.

Columns and labels:
[1] = target: T1, human Cystic Fibrosis Transmembrane Conductance Regulator (CFTR) harboring the ΔF508 mutation (Homo sapiens, UniProt P13569, DEL508-508); assay: H441 cell ΔF508-CFTR-HRP cell surface assay (Emax and EC50); type: cell-based; settings: for Emax: NCI-H441, NA = Not active
T1 construct: expressed in transfected cells; host or cells: H441 carcinoma line (G418-selected)
Summary of the method: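 H441 and 41o- bronchial epithelial cells expressing ΔF508-CFTR with an extracellular-loop-4 HRP tag were treated with a 15-point compound series (24.5–0.001 μM) for two nights, H441 at 27° C, 41o- at 37° C with 0.0005 mg/ml doxycycline. Surface HRP luminescence read; % of maximum VX809 signal and EC50 derived.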

[2] = target: T2, CFTR-mediated transepithelial chloride transport in primary human bronchial epithelial cells from a ΔF508 homozygous CF donor (Homo sapiens, UniProt P13569, DEL508-508); assay: TECC24 recording of CFTR-mediated transepithelial chloride transport in CF-HBE cells (AUC fold over DMSO); type: cell-based; settings: test agent 10 μM, 48 hours incubation, AUC of forskolin-stimulated IEQ relative to DMSO
T2 construct: Primary human bronchial epithelial cells from a ΔF508 homozygous CF donor; host or cells: primary CF-HBE cells, ΔF508 homozygous donor
Method: Example 316: TECC24 AUC Fold Over DMSO @ 10 uM
The effects of a test agent on CFTR-mediated transepithelial chloride transport was measured using TECC24 recording analysis. Test agents were solubilized in DMSO. Solubilized test agents were mixed with incubation medium containing DMEM/F12, Ultroser G (2%; Crescent Chemical, catalog #67042), Hyclone Fetal Clone II (2%; GE Healthcare, catalog #SH30066.02), bovine brain extract (0.25%; Lonza, catalog #CC-4098), insulin (2.5 μg/mL), IL-13 (10 ng/mL), hydrocortisone (20 nM), transferrin (2.5 μg/mL), triiodothyronine (500 nM), ethanolamine (250 nM), epinephrine (1.5 μM), phosphoethanolamine (250 nM), and retinoic acid (10 nM). Primary human bronchial epithelial cells from a ΔF508 homozygous CF donor (CF-HBE cells; from University of North Carolina Cystic Fibrosis Tissue Procurement Center), grown on Transwell HTS 24-well cell culture inserts (Costar, catalog #3378), were exposed to test agents or controls dissolved in incubation medium. The CF-HBE cells were cultured at 36.5° C. for 48 hours before TECC24 recordings were performed in the presence or absence of test agent, a positive control or vehicle (DMSO).
Following incubation, the transwell cell culture inserts containing the test agent or control-treated CF-HBE cells were loaded onto a TECC24 apparatus (TECC v7 or MTECC v2; EP Design) to record the transepithelial voltage (VT) and resistance (TEER) using 4 AgCl electrodes per well configured in current-clamp mode. The apical and basolateral bath solutions both contained (in mM) 140 NaCl, 5 KCl, 2 CaCl2), 1 MgCl2, 10 Hepes, and 10 glucose (adjusted to pH 7.4 with NaOH). To inhibit basal Na+ absorption, the ENaC inhibitor benzamil (10 μM) was added to the bath. Then, the adenylate cyclase activator, forskolin (10 μM), was added to the bath to activate CFTR. The forskolin-stimulated Cl-transport was halted by addition of CFTR inhibitor-172 (20 μM) to the bath at the end of the experiment to confirm specificity. VT and TEER recordings were digitally acquired at routine intervals using TECC or MTECC software (EP Design). VT and TEER were transformed into equivalent transepithelial Cl-current (IEQ), and the Area Under the Curve (AUC) of the IEQ time course between forskolin and CFTR inhibitor-172 addition was generated using Excel (Microsoft). Efficacy is expressed as the ratio of the test agent AUC divided by vehicle AUC. EC50s based on AUC are generated using the non-linear regression log(agonist) vs. response function in Prism software (GraphPad) with Hill Slope fixed=1.
If a test agent increased the AUC of the forskolin-stimulated IEQ relative to vehicle in CF-HBE cells, and this increase was inhibited by CFTR inhibitor-172, then the test agent was considered a CFTR corrector.

T2 sequence (P13569 with tags, fused parts or gaps DEL508-508): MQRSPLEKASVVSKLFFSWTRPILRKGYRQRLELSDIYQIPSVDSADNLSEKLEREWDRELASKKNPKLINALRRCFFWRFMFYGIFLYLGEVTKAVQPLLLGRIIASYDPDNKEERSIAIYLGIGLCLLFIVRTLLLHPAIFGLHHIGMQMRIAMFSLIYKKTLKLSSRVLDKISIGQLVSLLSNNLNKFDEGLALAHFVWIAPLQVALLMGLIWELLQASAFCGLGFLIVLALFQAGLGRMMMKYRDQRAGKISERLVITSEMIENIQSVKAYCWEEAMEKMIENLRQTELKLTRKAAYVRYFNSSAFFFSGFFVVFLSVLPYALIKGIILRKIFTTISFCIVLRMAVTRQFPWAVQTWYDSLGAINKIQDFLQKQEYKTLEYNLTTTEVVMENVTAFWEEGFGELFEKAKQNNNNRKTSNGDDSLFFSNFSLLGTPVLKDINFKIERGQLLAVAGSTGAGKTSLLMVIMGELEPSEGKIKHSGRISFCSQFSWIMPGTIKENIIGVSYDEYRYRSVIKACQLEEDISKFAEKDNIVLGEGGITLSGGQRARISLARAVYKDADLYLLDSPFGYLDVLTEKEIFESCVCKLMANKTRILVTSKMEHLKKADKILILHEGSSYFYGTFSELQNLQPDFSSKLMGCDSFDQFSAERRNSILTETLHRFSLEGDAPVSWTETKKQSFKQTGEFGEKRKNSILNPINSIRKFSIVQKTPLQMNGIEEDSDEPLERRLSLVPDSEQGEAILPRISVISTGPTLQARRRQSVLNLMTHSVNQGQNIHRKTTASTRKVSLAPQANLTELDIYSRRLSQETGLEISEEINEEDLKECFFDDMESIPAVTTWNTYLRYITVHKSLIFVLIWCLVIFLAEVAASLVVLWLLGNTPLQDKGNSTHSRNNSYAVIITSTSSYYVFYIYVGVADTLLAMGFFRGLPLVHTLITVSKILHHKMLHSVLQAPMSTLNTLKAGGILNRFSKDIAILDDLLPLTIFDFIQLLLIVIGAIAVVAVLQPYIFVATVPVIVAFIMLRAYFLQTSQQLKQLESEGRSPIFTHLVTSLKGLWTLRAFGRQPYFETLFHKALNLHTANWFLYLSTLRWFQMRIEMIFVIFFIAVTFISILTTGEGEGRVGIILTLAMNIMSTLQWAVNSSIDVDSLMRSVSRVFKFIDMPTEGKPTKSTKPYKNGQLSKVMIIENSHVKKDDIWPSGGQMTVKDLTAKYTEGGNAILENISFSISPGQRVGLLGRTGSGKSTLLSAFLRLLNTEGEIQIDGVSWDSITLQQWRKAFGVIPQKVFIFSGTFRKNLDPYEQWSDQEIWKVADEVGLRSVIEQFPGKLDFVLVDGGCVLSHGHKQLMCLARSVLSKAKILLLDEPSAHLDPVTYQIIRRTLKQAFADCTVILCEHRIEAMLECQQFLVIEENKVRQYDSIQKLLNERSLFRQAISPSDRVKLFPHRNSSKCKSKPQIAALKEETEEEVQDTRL
T1 sequence (P13569 with tags, fused parts or gaps DEL508-508): as above

SMILES	pEC50 [1]	Emax [1]	TECC24 AUC fold over DMSO @10 μM [2]
CC(C)(SC1CCCC1)[C@H](NC(=O)c1ccc2ccccc2c1OCc1ccc(SC(F)(F)F)cc1)C(=O)O [Example 169, (R)-3-(cyclopentylthio)-3-methyl-2-(1-((4-((trifluoromethyl)thio)benzyl)oxy)-2-naphthamido)butanoic Acid]	6.40	138%	B (“B” refers to AUC @10 uM between 4-6)
CC(C)(C)[C@H](NC(=O)c1ccc2ccc(Cl)cc2c1OCc1ccc(OC(F)(F)F)cc1)C(=O)O [Example 237, (S)-2-(7-chloro-1-((4-(trifluoromethoxy)benzyl)oxy)-2-naphthamido)-3,3-dimethyl Butanoic Acid]	7.00	275%	A (“A” refers to AUC @10 uM >6)
O=C(N[C@H](C(=O)O)C12CCC(CC1)C2)c1ccc2ccccc2c1OCc1ccc(OC(F)(F)F)cc1 [Example 14, (S)-2-((1r,4S)-bicyclo[2.2.1]heptan-1-yl)-2-(1-((4-(trifluoromethoxy)benzyl)oxy)-2-naphthamido)acetic Acid]	7.00	103%	B (“B” refers to AUC @10 uM between 4-6)
CC(C)(C)[C@H](NC(=O)c1ccc2cc(F)ccc2c1OCc1ccc(S(F)(F)(F)(F)F)cc1)C(=O)O [Example 81, (S)-2-(6-fluoro-1-((4-(pentafluoro-16-sulfanyl)benzyl)oxy)-2-naphthamido)-3,3-dimethylbutanoic Acid]	6.15	91.9%	A (“A” refers to AUC @10 uM >6)
CC(C)(SCC1CC1(F)F)[C@H](NC(=O)c1ccc2ccccc2c1OCc1ccc(SC(F)(F)F)cc1)C(=O)O (stereo partly drawn) [Example 164, (2R)-3-(((2,2-difluorocyclopropyl)methyl)thio)-3-methyl-2-(1-((4-((trifluoromethyl)thio)benzyl)oxy)-2-naphthamido)butanoic Acid]	6.22	112%	C (“C” refers to AUC @10 uM <4)
CC1([C@H](NC(=O)c2ccc3ccc(C(F)(F)F)cc3c2OCc2ccc(OC(F)(F)F)cc2)C(=O)O)CC1 [Example 297, (S)-2-(1-methylcyclopropyl)-2-(1-((4-(trifluoromethoxy)benzyl)oxy)-7-(trifluoromethyl)-2-naphthamido)acetic Acid]	6.30	137%	A (“A” refers to AUC @10 uM >6)
O=C(N[C@@H](Cc1c(Cl)cccc1Cl)C(=O)O)c1ccc2ccccc2c1OCc1ccc(C(F)(F)F)cc1 [Example 152, (S)-3-(2,6-dichlorophenyl)-2-(1-((4-(trifluoromethyl)benzyl)oxy)-2-naphthamido)propanoic Acid]	5.14	122%	C (“C” refers to AUC @10 uM <4)
CC(C)(C)[C@H](NC(=O)c1ccc2ccccc2c1OCC1CCCCC1)C(=O)O [Example 72, (S)-2-(1-(cyclohexylmethoxy)-2-naphthamido)-3,3-dimethylbutanoic Acid]	5.43	144%	C (“C” refers to AUC @10 uM <4)
CCC(C)(C)[C@H](NC(=O)c1ccc2ccc(OC)cc2c1OCc1ccc(OC(F)(F)F)cc1)C(=O)O [Example 311, (S)-2-(7-methoxy-1-((4-(trifluoromethoxy)benzyl)oxy)-2-naphthamido)-3,3-dimethylpentanoic Acid]	6.30	345%	A (“A” refers to AUC @10 uM >6)
C[C@@H](OCc1ccccc1)[C@H](NC(=O)c1ccc2cc(F)ccc2c1OCC1CCCCC1)C(=O)O (stereo in doubt) [Example 202]	5.39	112%	C (“C” refers to AUC @10 uM <4)
CC(C)(C)[C@H](NC(=O)c1ccc2ccc(Cl)cc2c1OCc1ccc(C(F)(F)F)cc1)C(=O)O [Example 286, (S)-2-(7-chloro-1-((4-(trifluoromethyl)benzyl)oxy)-2-naphthamido)-3,3-dimethylbutanoic Acid]	7.00	353%	A (“A” refers to AUC @10 uM >6)
